Test results taken from patent EP0551518A1, “QUINOLINECARBOXYLIC ACID DERIVATIVE” (NIPPON SHINYAKU COMPANY, LIMITED, priority 1990, dated 1992).
Values after ≈ are worked out from the molar mass of the structure shown.

Experiments:
Format in all cases: cell-based
[1] = tested on: Bacillus subtilis ATCC 6633; assay: Determination of minimal inhibitory concentration of growth (MIC)-1, agar plate dilution method; conditions: ATCC6633; Bacillus subtilis ATCC 6633; agar plate dilution, 10⁶ CFU/ml, 37°C, 18 hours; read-out: MIC
Protocol: (§1) Method: MIC was determined by the agar plate dilution method in accordance with the standard protocol of Japan Society of Chemotherapy (cf. Chemotherapy 29 (1), 76-79, 1981). Each bacterial culture obtained by 18-hour incubation in a sensitivity assay bouillon medium at 37°C was diluted to 10⁶ CFU/ml with the same medium. Using a microplanter, a sensitivity assay agar medium containing the test drug was inoculated with the diluted culture and incubated at 37°C for 18 hours. The MIC value was then determined. As reference drugs, 6-fluoro-1-methyl-4-oxo-7-(1-piperazinyl)-4H-[1,3]thiazeto[3,2-a]quinoline-3-carboxylic acid (referred to as control), ciprofloxacin (CPFX) and ofloxacin (OFLX) were used.

[2] = tested on: Enterococcus faecalis ATCC 29212; assay: as above; conditions: ATCC29212; Enterococcus faecalis ATCC 29212; agar plate dilution, 10⁶ CFU/ml, 37°C, 18 hours; read-out: MIC
Protocol: as §1

[3] = tested on: Escherichia coli KC-14; assay: as above; conditions: Escherichia coli, KC14, 18 h, 10⁶ CFU/ml, 37°C, read-out: MIC
Protocol: as §1

[4] = tested on: Micrococcus luteus ATCC 9341; assay: as above; conditions: ATCC9341; Micrococcus luteus ATCC 9341; agar plate dilution, 10⁶ CFU/ml, 37°C, 18 hours; read-out: MIC
Protocol: as §1

[5] = tested on: Proteus vulgaris HX-19; assay: as above; conditions: Proteus vulgaris, HX19, 18 h, Proteus vulgaris HX-19; agar plate dilution, 10⁶ CFU/ml, 37°C, 18 hours; read-out: MIC
Protocol: as §1

[6] = tested on: Pseudomonas aeruginosa IFO 3445; assay: as above; conditions: Pseudomonas aeruginosa, IFO3445, 18 h, Pseudomonas aeruginosa IFO 3445; agar plate dilution, 10⁶ CFU/ml, 37°C, 18 hours; read-out: MIC
Protocol: as §1

[7] = tested on: Staphylococcus aureus 209-P JC-1; assay: as above; conditions: Staphylococcus aureus, 209P, 18 h, Staphylococcus aureus 209-P JC-1; agar plate dilution, 10⁶ CFU/ml, 37°C, 18 hours; read-out: MIC
Protocol: as §1

[8] = tested on: Staphylococcus aureus OWPH 1984 (MRSA); assay: as above; conditions: Staphylococcus aureus, MRSA, 18 h, Staphylococcus aureus OWPH 1984 (MRSA); agar plate dilution, 10⁶ CFU/ml, 37°C, 18 hours; read-out: MIC
Protocol: as §1

[9] = tested on: Staphylococcus aureus OWPH 2125 (MRSA, PCA^r ); assay: as above; conditions: Staphylococcus aureus, MRSA, 18 h, Staphylococcus aureus OWPH 2125 (MRSA, PCA^r); agar plate dilution, 10⁶ CFU/ml, 37°C, 18 hours; read-out: MIC
Protocol: as §1

[10] = tested on: Staphylococcus aureus Smith; assay: as above; conditions: Staphylococcus aureus Smith; agar plate dilution, 10⁶ CFU/ml, 37°C, 18 hours; read-out: MIC
Protocol: as §1

[11] = tested on: Staphylococcus epider-midis IFO 12993; assay: as above; conditions: Staphylococcus, IFO12993, 18 h, Staphylococcus epider-midis IFO 12993; agar plate dilution, 10⁶ CFU/ml, 37°C, 18 hours; read-out: MIC
Protocol: as §1

[12] = tested on: S. aureus OWPH 1770; assay: Determination of minimal inhibitory concentration (MIC)-2, new quinolone-resistant MRSA; conditions: Staphylococcus aureus, OWPH1770, 18 h; S. aureus OWPH 1770, new quinolone-resistant and methicillin-resistant; same procedure as Test Example 1
Protocol: as §1
(§2) The antibacterial activity of the compounds obtained in Example 4, Example 25 and Example 26 of the present invention was assayed by the same procedure as in Test Example 1. As reference drugs, 6-fluoro-1-methyl-4-oxo-7-(1-piperazinyl)-4H-[1,3]-thiazeto[3,2-a]quinoline-3-carboxylic acid (referred to as Control), norfloxacin (NFLX) and tosufloxacin (TFLX) were used.

[13] = tested on: S. aureus OWPH 1773; assay: as above; conditions: Staphylococcus aureus, OWPH1773, 18 h; S. aureus OWPH 1773, new quinolone-resistant and methicillin-resistant; same procedure as Test Example 1
Protocol: as §1, §2

[14] = tested on: S. aureus OWPH 1786; assay: as above; conditions: Staphylococcus aureus, OWPH1786, 18 h; S. aureus OWPH 1786, new quinolone-resistant and methicillin-resistant; same procedure as Test Example 1
Protocol: as §1, §2

[15] = tested on: S. aureus OWPH 1792; assay: as above; conditions: Staphylococcus aureus, OWPH1792, 18 h; S. aureus OWPH 1792, new quinolone-resistant and methicillin-resistant; same procedure as Test Example 1
Protocol: as §1, §2

[16] = tested on: S. aureus OWPH 1793; assay: as above; conditions: Staphylococcus aureus, OWPH1793, 18 h; S. aureus OWPH 1793, new quinolone-resistant and methicillin-resistant; same procedure as Test Example 1
Protocol: as §1, §2

[17] = tested on: S. aureus OWPH 1796; assay: as above; conditions: Staphylococcus aureus, OWPH1796, 18 h; S. aureus OWPH 1796, new quinolone-resistant and methicillin-resistant; same procedure as Test Example 1
Protocol: as §1, §2

[18] = tested on: S. aureus OWPH 1799; assay: as above; conditions: Staphylococcus aureus, OWPH1799, 18 h; S. aureus OWPH 1799, new quinolone-resistant and methicillin-resistant; same procedure as Test Example 1
Protocol: as §1, §2

[19] = tested on: S. aureus OWPH 2124; assay: as above; conditions: Staphylococcus aureus, OWPH2124, 18 h; S. aureus OWPH 2124, new quinolone-resistant and methicillin-resistant; same procedure as Test Example 1
Protocol: as §1, §2

[20] = tested on: S. aureus OWPH 2127; assay: as above; conditions: Staphylococcus aureus, OWPH2127, 18 h; S. aureus OWPH 2127, new quinolone-resistant and methicillin-resistant; same procedure as Test Example 1
Protocol: as §1, §2

[21] = tested on: S. aureus OWPH 2128; assay: as above; conditions: Staphylococcus aureus, OWPH2128, 18 h; S. aureus OWPH 2128, new quinolone-resistant and methicillin-resistant; same procedure as Test Example 1
Protocol: as §1, §2

[22] = tested on: S. aureus OWPH 2133; assay: as above; conditions: Staphylococcus aureus, OWPH2133, 18 h; S. aureus OWPH 2133, new quinolone-resistant and methicillin-resistant; same procedure as Test Example 1
Protocol: as §1, §2

[23] = tested on: S. aureus OWPH 2134; assay: as above; conditions: Staphylococcus aureus, OWPH2134, 18 h; S. aureus OWPH 2134, new quinolone-resistant and methicillin-resistant; same procedure as Test Example 1
Protocol: as §1, §2

[24] = tested on: S. aureus Sh 2; assay: as above; conditions: Staphylococcus aureus, SH2, 18 h; S. aureus Sh 2, new quinolone-resistant and methicillin-resistant; same procedure as Test Example 1
Protocol: as §1, §2

[25] = tested on: S. aureus Sh 44; assay: as above; conditions: Staphylococcus aureus, SH44, 18 h; S. aureus Sh 44, new quinolone-resistant and methicillin-resistant; same procedure as Test Example 1
Protocol: as §1, §2

[26] = tested on: S. aureus Sh 47; assay: as above; conditions: Staphylococcus aureus, SH47, 18 h; S. aureus Sh 47, new quinolone-resistant and methicillin-resistant; same procedure as Test Example 1
Protocol: as §1, §2

[27] = tested on: S. aureus Sh 54; assay: as above; conditions: Staphylococcus aureus, SH54, 18 h; S. aureus Sh 54, new quinolone-resistant and methicillin-resistant; same procedure as Test Example 1
Protocol: as §1, §2

[28] = tested on: S. aureus Sh 8; assay: as above; conditions: Staphylococcus aureus, SH8, 18 h; S. aureus Sh 8, new quinolone-resistant and methicillin-resistant; same procedure as Test Example 1
Protocol: as §1, §2

| Structure (SMILES) | MIC [1] [µg/mL] | MIC [2] [µg/mL] | MIC [3] [µg/mL] | MIC [4] [µg/mL] | MIC [5] [µg/mL] | MIC [6] [µg/mL] | MIC [7] [µg/mL] | MIC [8] [µg/mL] | MIC [9] [µg/mL] | MIC [10] [µg/mL] | MIC [11] [µg/mL] | other results |
| --- | --- | --- | --- | --- | --- | --- | --- | --- | --- | --- | --- | --- |
| COc1c(-c2ccccc2)c(F)cc2c(=O)c(C(=O)O)c3n(c12)CS3 [Example 21, 6-Fluoro-8-methoxy-4-oxo-7-phenyl-4H-[1,3]thiazeto[3,2-a]quinoline-3-carboxylic acid] | 0.025 (≈ 0.07 µM) | 0.39 (≈ 1.09 µM) | 0.78 (≈ 2.18 µM) | 3.13 (≈ 8.76 µM) | 0.39 (≈ 1.09 µM) | 6.25 (≈ 17.5 µM) | 0.05 (≈ 0.14 µM) | 0.025 (≈ 0.07 µM) | 0.39 (≈ 1.09 µM) | 0.05 (≈ 0.14 µM) | 0.05 (≈ 0.14 µM) |  |
| CC1Sc2c(C(=O)O)c(=O)c3cc(F)c(-c4ccccc4)cc3n21 (centres unmarked) [Example 5, 6-Fluoro-1-methyl-4-oxo-7-phenyl-4H-[1,3]thiazeto[3,2-a]quinoline-3-carboxylic acid] | ≤ 0.006 | 0.1 (≈ 0.293 µM) | 0.1 (≈ 0.293 µM) | 0.39 (≈ 1.14 µM) | 0.05 (≈ 0.146 µM) | 0.2 (≈ 0.586 µM) | 0.025 (≈ 0.0732 µM) | 0.012 (≈ 0.0352 µM) | 0.05 (≈ 0.146 µM) | ≤ 0.006 | 0.025 (≈ 0.0732 µM) |  |
| CNc1ccc(-c2cc3c(cc2F)c(=O)c(C(=O)O)c2n3CS2)cc1 [Example 46, 6-Fluoro-7-(4-methylaminophenyl)-4-oxo-4H-[1,3]thiazeto[3,2-a]quinoline-3-carboxylic acid] | ≤ 0.006 | 0.2 (≈ 0.561 µM) | 0.1 (≈ 0.281 µM) | 0.78 (≈ 2.19 µM) | 0.025 (≈ 0.0702 µM) | 0.78 (≈ 2.19 µM) | 0.025 (≈ 0.0702 µM) | 0.012 (≈ 0.0337 µM) | 0.1 (≈ 0.281 µM) | ≤ 0.006 | 0.05 (≈ 0.14 µM) |  |
| CCn1cc(C(=O)O)c(=O)c2cc(F)c(N3CCNCC3)cc21 [NFLX, norfloxacin, reference compound] |  |  |  |  |  |  |  |  |  |  |  | MIC [12]: > 100 µg/mL; MIC [13]: > 100 µg/mL; MIC [14]: > 100 µg/mL; MIC [15]: > 100 µg/mL; MIC [16]: > 100 µg/mL; MIC [17]: > 100 µg/mL; MIC [18]: > 100 µg/mL; MIC [19]: > 100 µg/mL; MIC [20]: > 100 µg/mL; MIC [21]: > 100 µg/mL; MIC [22]: > 100 µg/mL; MIC [23]: > 100 µg/mL; MIC [24]: > 100 µg/mL; MIC [25]: > 100 µg/mL; MIC [26]: > 100 µg/mL; MIC [27]: > 100 µg/mL; MIC [28]: > 100 µg/mL |
| CNc1ccc(-c2c(F)cc3c(=O)c(C(=O)O)c4n(c3c2OC)C(C)S4)cc1 (centres unmarked) [Example 49, 6-Fluoro-8-methoxy-1-methyl-7-(4-methylaminophenyl)-4-oxo-4H-[1,3]thiazeto[3,2-a]quinoline-3-carboxylic acid] | ≤ 0.006 | 0.025 (≈ 0.0624 µM) | 0.39 (≈ 0.974 µM) | 0.2 (≈ 0.499 µM) | 0.39 (≈ 0.974 µM) | 3.13 (≈ 7.82 µM) | 0.025 (≈ 0.0624 µM) | 0.012 (≈ 0.03 µM) | 0.1 (≈ 0.25 µM) | ≤ 0.006 | 0.012 (≈ 0.03 µM) |  |
| CC1Sc2c(C(=O)O)c(=O)c3cc(F)c(-c4ccc(N)cc4)cc3n21.Cl (centres unmarked) [Example 55, 7-(4-Aminophenyl)-6-fluoro-1-methyl-4-oxo-4H-[1,3]thiazeto[3,2-a]quinoline-3-carboxylic acid hydrochloride] | ≤ 0.006 | 0.1 | 0.1 | 0.39 | 0.025 | 0.39 | 0.025 | 0.012 | 0.05 | 0.012 | 0.012 |  |
| NC1CCN(c2nc3c(cc2F)c(=O)c(C(=O)O)cn3-c2ccc(F)cc2F)C1 (centres unmarked) [TFLX, tosufloxacin, reference compound] |  |  |  |  |  |  |  |  |  |  |  | MIC [12]: > 100 µg/mL; MIC [13]: > 100 µg/mL; MIC [14]: > 100 µg/mL; MIC [15]: > 100 µg/mL; MIC [16]: > 100 µg/mL; MIC [17]: > 100 µg/mL; MIC [18]: > 100 µg/mL; MIC [19]: 12.5 µg/mL (≈ 30.9 µM); MIC [20]: > 100 µg/mL; MIC [21]: > 100 µg/mL; MIC [22]: > 100 µg/mL; MIC [23]: > 100 µg/mL; MIC [24]: > 100 µg/mL; MIC [25]: > 100 µg/mL; MIC [26]: > 100 µg/mL; MIC [27]: > 100 µg/mL; MIC [28]: > 100 µg/mL |
